The record followed here is article PMC10058583, “Development of Novel Fluorinated Polyphenols as Selective Inhibitors of DYRK1A/B Kinase for Treatment of Neuroinflammatory Diseases including Parkinson’s Disease” (Pharmaceuticals, 2023).

SMILES strings stand for the structures.

Series [1] has as its target T1, 6xHis-tagged rat-truncated DYRK1A (residues 1-497) (Rattus norvegicus, UniProt Q63470).
T1 construct: 6xHis-tagged rat-truncated DYRK1A (residues 1-497); 6xHis; made in house
The series can be described thus: ELISA-based non-radioactive kinase assay, DYRK1A. It is filed as biochemical. Conditions: read-out: DYRK1A IC50. (In general: ELISA stands for enzyme-linked immunosorbent assay.)

Series [2] concerns the target T2, human DYRK1B isoform p65 (GST fusion) (Homo sapiens, UniProt Q9Y463).
T2 construct: made in house
As to the kind of experiment: ELISA-based non-radioactive kinase assay, DYRK1B. It is filed as biochemical. Conditions: 30 ng GST-DYRK1B, 60 min reaction. The protocol:
(§1) DYRK1B was prepared from human DYRK1B isoform p65 as glutathione S-transferase fusion protein, and DYRK2 was prepared from human DYRK2 isoform 1 as 6xHis-tagged protein, as previously described.
(§2) For DYRK2, the reactions were performed exactly as described for DYRK1A. For DYRK1B, the assays were similarly conducted but with 30 ng GST-DYRK1B and a kinase reaction time of 60 min.

Series [3] addresses T3, human DYRK2 isoform 1 (6xHis-tagged) (Homo sapiens, UniProt Q92630).
T3 sequence (Q92630 74-601 limits assumed): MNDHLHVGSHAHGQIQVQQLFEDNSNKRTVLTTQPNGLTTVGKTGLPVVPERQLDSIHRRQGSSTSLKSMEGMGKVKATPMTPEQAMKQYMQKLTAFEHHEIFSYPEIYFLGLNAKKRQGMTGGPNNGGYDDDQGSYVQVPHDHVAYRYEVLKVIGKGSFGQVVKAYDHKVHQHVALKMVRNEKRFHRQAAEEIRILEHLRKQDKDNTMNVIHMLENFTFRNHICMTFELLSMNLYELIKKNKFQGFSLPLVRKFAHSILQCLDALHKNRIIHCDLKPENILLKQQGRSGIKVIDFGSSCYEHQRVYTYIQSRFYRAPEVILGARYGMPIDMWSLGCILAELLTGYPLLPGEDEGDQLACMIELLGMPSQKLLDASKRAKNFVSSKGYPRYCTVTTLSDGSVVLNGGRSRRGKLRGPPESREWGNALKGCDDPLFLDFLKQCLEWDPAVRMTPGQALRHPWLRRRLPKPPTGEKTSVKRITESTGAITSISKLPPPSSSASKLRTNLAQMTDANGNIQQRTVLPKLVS
As to the kind of experiment: ELISA-based non-radioactive kinase assay, DYRK2. It is filed as biochemical. The protocol:
as §1, §2

The target in another series is DYRK1A (Rattus norvegicus, UniProt Q63470). The series can be described thus: ATP competition assay on DYRK1A. It is filed as biochemical. Conditions: ATP up to 0.8 mM.
Series [4] concerns LPS-induced inflammation in C57BL/6J mice. The series can be described thus: LPS-induced inflammation model. The class given is in vivo, mouse. The protocol: Neuroinflammation is an important factor contributing to cognitive impairment and neurodegenerative diseases such as PD, and the administration of LPS is frequently used to study neuroinflammation-associated diseases in mice.
Each group consisted of six male mice. […] Animals were pretreated for 3 days with the drug of choice; then, treatment with LPS commenced on day 0, and on the 5th day of LPS treatment, the drug was administered half an hour before LPS injection. One hour after LPS treatment, the animals were anesthetized with a mixture of ketamine, xylazine 2%, atropine, and saline (4:2.5:1:2.5). The body temperature of mice under anesthesia was maintained by applying a heating blanket and monitored using a rectal thermometer. After anesthesia, the animals underwent cardiac perfusion with ice-cold saline for three minutes (3 mL/minute via peristaltic pump) via the left ventricle. The right atrium was cut as an outflow route. The right hemisphere was post-fixed overnight in 4% PFA in PBS at 4 °C and stored in 1xPBS containing 0.1% (v/w) sodium azide at 4 °C. The left hemisphere, hippocampus, cortex, midbrain, and brainstem were microdissected, immersed in liquid nitrogen in separate tubes (with one-fifth of the rest of the brain tissue), and stored in microfuge tubes at −80°. TNFα (in both plasma and the hippocampus) was analyzed with ELISA, and the p-tau (AT-8 antibody) level was recorded in the hippocampus and cortex with WB.

Series [5] is described as follows: In vitro and in vivo safety studies (not detailed).
The mark [6] stands for this setting: PO 30 mg/kg BID, from 3 days before LPS (i.p. 750 µg/kg, 5 days).

T2 sequence (Q9Y463 1-589 isoform Q9Y463-2): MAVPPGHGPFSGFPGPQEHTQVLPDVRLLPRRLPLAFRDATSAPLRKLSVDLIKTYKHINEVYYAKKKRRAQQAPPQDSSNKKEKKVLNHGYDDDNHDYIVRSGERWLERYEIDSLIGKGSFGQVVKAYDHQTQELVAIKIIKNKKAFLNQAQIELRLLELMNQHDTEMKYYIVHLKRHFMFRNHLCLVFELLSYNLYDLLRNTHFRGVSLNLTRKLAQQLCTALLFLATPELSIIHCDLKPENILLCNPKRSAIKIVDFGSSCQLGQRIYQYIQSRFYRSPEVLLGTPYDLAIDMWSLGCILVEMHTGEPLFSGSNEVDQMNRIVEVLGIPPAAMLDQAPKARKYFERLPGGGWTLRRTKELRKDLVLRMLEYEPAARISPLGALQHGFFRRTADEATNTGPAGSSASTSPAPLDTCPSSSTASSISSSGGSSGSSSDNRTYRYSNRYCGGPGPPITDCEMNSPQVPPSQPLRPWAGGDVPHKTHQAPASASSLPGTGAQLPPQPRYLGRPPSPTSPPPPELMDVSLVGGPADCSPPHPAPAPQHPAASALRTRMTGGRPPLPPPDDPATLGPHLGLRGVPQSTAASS

As to `COc1cc(C(=O)O[C@@H]2Cc3c(O)cc(O)cc3O[C@H]2c2cc(O)c(O)c(O)c2)c(F)c(O)c1O` [Compound 1c], the IC50 (as a rule, the concentration that inhibits the measured activity by half) in series [1] is 73 nM; in series [2], 79 nM; in series [3] it was 331 nM. The “mode of inhibition with varying ATP” value at DYRK1A was “non-ATP-competitive inhibitor”. For the same molecule, in series [4] (IN 30 mg/kg BID, LPS i.p. 750 µg/kg), the “inhibition of tau phosphorylation” value is “lack of efficacy”. Besides, the “tau phosphorylation in the hippocampus” value in series [4] (PO 30 mg/kg BID, LPS i.p. 750 µg/kg) is listed as “reduced tau phosphorylation”. Moreover, the “TNFα accumulation in plasma” value in series [4] (setting [6]) is reported as “significantly (p < 0.05) decreasing”. Further, the “TNFα accumulation in the brain” value in series [4] (setting [6]) is given as “significantly (p < 0.05) decreasing”. Further, the “in vitro and in vivo safety studies, outcome” value in series [5] was “have not reveled any concerns”.
